Laboratory results taken from patent US8124766B2, “Inhibitors of diacylglycerol acyltransferase” (Madrigal Pharmaceuticals, Inc., priority 2008, dated 2012).
Structures can show the parent of a compound that is named as a salt.

Tested on: DGAT
Test: DGAT Phospholipid FlashPlate Assay
Type: biochemical
Settings: DGAT pellet, DAG-coated PL-FlashPlate, 14C-Pal-CoA, 37° C. for 1 hour; read-out: DGAT Inhibition Activity IC50
Procedure: DGAT Phospholipid FlashPlate Assay
Materials for the assay were: PL-FlashPlate: Phospholipid FlashPlates from PerkinElmer, catalog number SMP108; DAG (1,2-Dioleoyl-sn-glycerol) 10 mM suspended in water containing 0.1% Triton X-100; ^14C-Pal-CoA (palmitoyl coenzyme A, [palmitoyl-1-^14C]) from PerkinElmer, catalog number NEC-555 with a specific activity of 55 mCi/mmol; and DGAT pellet, with a protein concentration of 9.85 mg/ml.
Aqueous buffers were prepared or purchased as follows: The coating buffer (CB) was purchased from PerkinElmer, catalog number SMP900A; the reaction buffer (RB) was 50 mM Tris-HCl, pH 7.5, 100 mM NaCl, 0.01% BSA in water; the washing buffer (WB) is 50 mM Tris-HCl, pH 7.5, 100 mM NaCl, 0.05% deoxycholic acid sodium salt in water; the dilution buffer (DB) was 50 mM Tris-HCl, pH 7.5, 100 mM NaCl, 1 mM EDTA, 0.2% Triton X-100 in water.
1,2-Dioleoyl-sn-glycerol (DAG, 10 mmoles) was diluted to 500 μM with coating buffer (CB). The diluted DAG solution was then added to 384-well PL-FlashPlates at 60 μl per well, and incubated at room temperature for 2 days. The coated plates were then washed twice with washing buffer (WB) before use. Test compounds were serial diluted to 2000, 666.7, 222.2, 74.1, 24.7, 8.2, 2.7 and 0.9 μM in 100% DMSO. Diluted compound were further diluted 10 fold with reaction buffer (RB). ^14C-Pal-CoA was diluted to 8.3 μM with RB. The DGAT pellet was diluted to 0.13 mg protein/ml with dilution buffer (DB) immediately before it was added to the PL-FlashPlates to start the reaction. 20 μl of the RB-diluted compounds (or 10% DMSO in RB for Total and Blank), 15 μl of RB diluted 14C-Pal-CoA and 15 μl of DB diluted DGAT pellet (DB without DGAT for Blanks) were transferred to each well of the PL-FlashPlates. The reaction mixtures were incubated at 37° C. for 1 hour. The reactions were stopped by washing 3 times with WB. Plates were sealed with Top-seal and read on a Topcount instrument.
Calculation of IC50: The IC50 values for each compound were generated using an Excel template. The Topcount rpm readings of Total and Blank were used as 0% and 100% inhibition. The percent inhibition values of reactions in the presence of compounds were calculated, and plotted against compound concentrations. All data were fitted into a Dose Response One Site model (4 parameter logistic model) as the following: (A+((B−A)/(1+((x/C)^D)))), with A and B as the bottom and top of the curve (highest and lowest inhibition), respectively, and C as IC50 and D as Hill Coefficient of the compound.

IC50 | SMILES
351 nM | CCn1c(C(=O)Nc2ccc(N3CCN(C(=O)CC(C(=O)O)C4CCCCC4)CC3)cc2)cc2c(Cl)c(Cl)ccc21 (stereo not shown) [Example 63, 2-Cyclohexyl-4-(4-{4-[(4,5-dichloro-1-ethyl-1H-indole-2-carbonyl)-amino]-phenyl}-piperazin-1-yl)-4-oxo-butyric acid hydrochloride]
127 nM | CC(C)(CC(=O)N1CCC(c2ccc(NC(=O)c3cc4c(Cl)cccc4s3)cc2)CC1)C(=O)O [Example 25, 4-(4-{4-[(4-Chloro-benzo[b]thiophene-2-carbonyl)-amino]-phenyl}-piperidin-1-yl)-2,2-dimethyl-4-oxo-butyric acid]
750 nM | COCCN(C)c1ccc(NC(=O)c2cc3cc(Cl)ccc3n2C)cn1 [Example 42, 5-Chloro-1-methyl-1H-indole-2-carboxylic acid {6-[(2-methoxy-ethyl)-methyl-amino]-pyridin-3-yl}-amide hydrochloride]
396 nM | CCOC(=O)N1CC[C@H](Nc2ccc(NC(=O)c3cc4ccccc4s3)cn2)C1 [Example 48, (S)-3-{5-[(Benzo[b]thiophene-2-carbonyl)-amino]-pyridin-2-ylamino}-pyrrolidine-1-carboxylic acid ethyl ester hydrochloride]
117 nM | COCCN(C)c1ccc(NC(=O)c2[nH]c3c(OC)cccc3c2C)cn1 [Example 72, 7-Methoxy-3-methyl-1H-indole-2-carboxylic acid {6-[(2-methoxy-ethyl)-methyl-amino]pyridin-3-yl}-amide]
479 nM | CC(C)(C)OC(=O)N1CCN(c2ccc(NC(=O)c3cc4cc(Br)ccc4s3)cn2)CC1 [Example 3, 4-{5-[(5-Bromo-benzo[b]thiophene-2-carbonyl)-amino]-pyridin-2-yl}-piperazine-1-carboxylic acid tert-butyl ester]
489 nM | CCOc1cccc2c1cc(C(=O)Nc1ccc(N3CCN(C(=O)CC(C)(C)C(=O)O)CC3)cc1)n2CC [Example 44, 4-(4-{4-[(4-Ethoxy-1-ethyl-1H-indole-2-carbonyl)-amino]-phenyl}-piperazin-1-yl)-2,2-dimethyl-4-oxo-butyric acid]
683 nM | COCCN(C)c1ccc(NC(=O)c2cc3ccccc3s2)cn1 [Example 34, Benzo[b]thiophene-2-carboxylic acid {6-[(2-methoxy-ethyl)-methyl-amino]-pyridin-3-yl}-amide]
80 nM | CCn1c(C(=O)Nc2ccc(N3CCN(C(=O)CC(C)(C)C(=O)O)CC3)nc2)cc2c(Cl)c(Cl)ccc21 [Example 19, 4-(4-{5-[(4,5-Dichloro-1-ethyl-1H-indole-2-carbonyl)-amino]-pyridin-2-yl}-piperazin-1-yl)-2,2-dimethyl-4-oxo-butyric acid]
343 nM | CCOC(=O)N1CC[C@H](Nc2ccc(NC(=O)c3cc4cc(OC)ccc4n3CC)cn2)C1 [Example 51, (S)-3-{5-[(1-Ethyl-5-methoxy-1H-indole-2-carbonyl)-amino]-pyridin-2-ylamino}-pyrrolidine-1-carboxylic acid ethyl ester hydrochloride]
188 nM | COc1cccc2c(C)c(C(=O)Nc3ccc(N4CCN(C(=O)OC(C)(C)C)CC4)cc3)[nH]c12 [Example 71, 4-{4-[(7-Methoxy-3-methyl-1H-indole-2-carbonyl)-amino]-phenyl}-piperazine-1-carboxylic acid tert-butyl ester]
210 nM | CCn1c(C(=O)Nc2ccc(N3CCN(C(=O)CC(C)(C)C(=O)O)CC3)cc2)cc2c(Cl)c(Cl)ccc21 [Example 60, 4-(4-{4-[(4,5-Dichloro-1-ethyl-1H-indole-2-carbonyl)-amino]-phenyl}-piperazin-1-yl)-2,2-dimethyl-4-oxo-butyric acid]
856 nM | COCCN(C)c1ncc(NC(=O)c2sc3ccccc3c2C)cn1 [Example 36, 3-Methyl-benzo[b]thiophene-2-carboxylic acid {2-[(2-methoxy-ethyl)-methyl-amino]-pyrimidin-5-yl}-amide hydrochloride]
